{"source": "the supplement of paper PMC10307832", "assay_in_all_cases": "relative viability (nuclei count vs DMSO), 5 days (fraction); higher = more cells survive", "key": {"LU99A": {"tested_on": "LU99A", "procedure,_shortened": "(§1)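 One day after seeding in 1536-well plates, lung cancer cell lines were dosed by pin tool. Dosing was either single-drug or a fixed anchor-drug dose plus five library-drug doses (not always all listed) in √10 steps. After 5 days, nuclei were stained in one fix-and-stain step and counted on 4× images, and relative viability is the nuclei count of treated wells over that of vehicle wells, given as the median of duplicate plates.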"}, "HCC-366": {"tested_on": "HCC-366", "procedure,_shortened": "as §1"}, "PC-3 [JPC-3]": {"tested_on": "PC-3 [JPC-3]", "procedure,_shortened": "as §1"}, "NCI-H2087": {"tested_on": "NCI-H2087", "procedure,_shortened": "as §1"}, "NCI-H3122": {"tested_on": "NCI-H3122", "procedure,_shortened": "as §1"}, "NCI-H1755": {"tested_on": "NCI-H1755", "procedure,_shortened": "as §1"}, "NCI-H1395": {"tested_on": "NCI-H1395", "procedure,_shortened": "as §1"}, "HCC-78": {"tested_on": "HCC-78", "procedure,_shortened": "as §1"}, "NCI-H1651": {"tested_on": "NCI-H1651", "procedure,_shortened": "as §1"}, "NCI-H2228": {"tested_on": "NCI-H2228", "procedure,_shortened": "as §1"}, "UMC-11": {"tested_on": "UMC-11", "procedure,_shortened": "as §1"}, "NCI-H460": {"tested_on": "NCI-H460", "procedure,_shortened": "as §1"}, "RERF-LC-KJ": {"tested_on": "RERF-LC-KJ", "procedure,_shortened": "as §1"}, "LC-2-ad": {"tested_on": "LC-2-ad", "procedure,_shortened": "as §1"}, "NCI-H1793": {"tested_on": "NCI-H1793", "procedure,_shortened": "as §1"}, "CAL-12T": {"tested_on": "CAL-12T", "procedure,_shortened": "as §1"}, "ABC-1": {"tested_on": "ABC-1", "procedure,_shortened": "as §1"}, "LOU-NH91": {"tested_on": "LOU-NH91", "procedure,_shortened": "as §1"}, "NCI-H1734": {"tested_on": "NCI-H1734", "procedure,_shortened": "as §1"}, "NCI-H2170": {"tested_on": "NCI-H2170", "procedure,_shortened": "as §1"}, "NCI-H1944": {"tested_on": "NCI-H1944", "procedure,_shortened": "as §1"}, "NCI-H2405": {"tested_on": "NCI-H2405", "procedure,_shortened": "as §1"}}, "data": [{"smiles": "Oc1nc(-c2ccc(C(F)(F)F)cc2)nc2c1CSCC2", "note": "[XAV939] + Cc1nc(NC(=O)N2CCC[C@H]2C(N)=O)sc1-c1ccnc(C(C)(C)C(F)(F)F)c1 [Alpelisib] (partner 2 µM)", "values": [{"measurement": "relative viability", "setting": "LU99A; first compound 0.08 µM", "result": 0.501}, {"measurement": "relative viability", "setting": "LU99A; first compound 0.253 µM", "result": 0.579}, {"measurement": "relative viability", "setting": "LU99A; first compound 0.8 µM", "result": 0.494}, {"measurement": "relative viability", "setting": "LU99A; first compound 2.53 µM", "result": 0.4}, {"measurement": "relative viability", "setting": "HCC-366; first compound 0.08 µM", "result": 0.535}, {"measurement": "relative viability", "setting": "HCC-366; first compound 0.253 µM", "result": 0.308}, {"measurement": "relative viability", "setting": "HCC-366; first compound 0.8 µM", "result": 0.446}, {"measurement": "relative viability", "setting": "HCC-366; first compound 2.53 µM", "result": 0.389}, {"measurement": "relative viability", "setting": "PC-3 [JPC-3]; first compound 0.08 µM", "result": 1}, {"measurement": "relative viability", "setting": "PC-3 [JPC-3]; first compound 0.253 µM", "result": 0.962}, {"measurement": "relative viability", "setting": "PC-3 [JPC-3]; first compound 0.8 µM", "result": 1.07}, {"measurement": "relative viability", "setting": "PC-3 [JPC-3]; first compound 2.53 µM", "result": 0.962}, {"measurement": "relative viability", "setting": "NCI-H2087; first compound 0.08 µM", "result": 1.24}, {"measurement": "relative viability", "setting": "NCI-H2087; first compound 0.253 µM", "result": 0.914}, {"measurement": "relative viability", "setting": "NCI-H2087; first compound 0.8 µM", "result": 1.09}, {"measurement": "relative viability", "setting": "NCI-H2087; first compound 2.53 µM", "result": 0.889}, {"measurement": "relative viability", "setting": "NCI-H3122; first compound 0.08 µM", "result": 0.812}, {"measurement": "relative viability", "setting": "NCI-H3122; first compound 0.253 µM", "result": 0.575}, {"measurement": "relative viability", "setting": "NCI-H3122; first compound 0.8 µM", "result": 0.757}, {"measurement": "relative viability", "setting": "NCI-H3122; first compound 2.53 µM", "result": 0.358}, {"measurement": "relative viability", "setting": "NCI-H1755; first compound 0.08 µM", "result": 0.895}, {"measurement": "relative viability", "setting": "NCI-H1755; first compound 0.253 µM", "result": 0.808}, {"measurement": "relative viability", "setting": "NCI-H1755; first compound 0.8 µM", "result": 0.888}, {"measurement": "relative viability", "setting": "NCI-H1755; first compound 2.53 µM", "result": 0.735}, {"measurement": "relative viability", "setting": "NCI-H1395; first compound 0.08 µM", "result": 1.09}, {"measurement": "relative viability", "setting": "NCI-H1395; first compound 0.253 µM", "result": 1.03}, {"measurement": "relative viability", "setting": "NCI-H1395; first compound 0.8 µM", "result": 1.08}, {"measurement": "relative viability", "setting": "NCI-H1395; first compound 2.53 µM", "result": 1.06}, {"measurement": "relative viability", "setting": "HCC-78; first compound 0.08 µM", "result": 0.35}, {"measurement": "relative viability", "setting": "HCC-78; first compound 0.253 µM", "result": 0.248}, {"measurement": "relative viability", "setting": "HCC-78; first compound 0.8 µM", "result": 0.375}, {"measurement": "relative viability", "setting": "HCC-78; first compound 2.53 µM", "result": 0.273}, {"measurement": "relative viability", "setting": "NCI-H1651; first compound 0.08 µM", "result": 0.979}, {"measurement": "relative viability", "setting": "NCI-H1651; first compound 0.253 µM", "result": 0.841}, {"measurement": "relative viability", "setting": "NCI-H1651; first compound 0.8 µM", "result": 0.978}, {"measurement": "relative viability", "setting": "NCI-H1651; first compound 2.53 µM", "result": 0.891}, {"measurement": "relative viability", "setting": "NCI-H2228; first compound 0.08 µM", "result": 0.708}, {"measurement": "relative viability", "setting": "NCI-H2228; first compound 0.253 µM", "result": 0.757}, {"measurement": "relative viability", "setting": "NCI-H2228; first compound 0.8 µM", "result": 0.536}, {"measurement": "relative viability", "setting": "NCI-H2228; first compound 2.53 µM", "result": 0.463}, {"measurement": "relative viability", "setting": "UMC-11; first compound 0.08 µM", "result": 1.2}, {"measurement": "relative viability", "setting": "UMC-11; first compound 0.8 µM", "result": 0.971}, {"measurement": "relative viability", "setting": "UMC-11; first compound 2.53 µM", "result": 0.64}, {"measurement": "relative viability", "setting": "NCI-H460; first compound 0.08 µM", "result": 0.679}, {"measurement": "relative viability", "setting": "NCI-H460; first compound 0.253 µM", "result": 0.36}, {"measurement": "relative viability", "setting": "NCI-H460; first compound 0.8 µM", "result": 0.53}, {"measurement": "relative viability", "setting": "NCI-H460; first compound 2.53 µM", "result": 0.359}, {"measurement": "relative viability", "setting": "RERF-LC-KJ; first compound 0.08 µM", "result": 0.702}, {"measurement": "relative viability", "setting": "RERF-LC-KJ; first compound 0.253 µM", "result": 0.708}, {"measurement": "relative viability", "setting": "RERF-LC-KJ; first compound 0.8 µM", "result": 0.768}, {"measurement": "relative viability", "setting": "RERF-LC-KJ; first compound 2.53 µM", "result": 0.735}, {"measurement": "relative viability", "setting": "LC-2-ad; first compound 0.08 µM", "result": 0.901}, {"measurement": "relative viability", "setting": "LC-2-ad; first compound 0.253 µM", "result": 0.711}, {"measurement": "relative viability", "setting": "LC-2-ad; first compound 0.8 µM", "result": 0.848}, {"measurement": "relative viability", "setting": "LC-2-ad; first compound 2.53 µM", "result": 0.804}, {"measurement": "relative viability", "setting": "NCI-H1793; first compound 0.08 µM", "result": 0.589}, {"measurement": "relative viability", "setting": "NCI-H1793; first compound 0.253 µM", "result": 0.59}, {"measurement": "relative viability", "setting": "NCI-H1793; first compound 0.8 µM", "result": 0.697}, {"measurement": "relative viability", "setting": "NCI-H1793; first compound 2.53 µM", "result": 0.708}, {"measurement": "relative viability", "setting": "CAL-12T; first compound 0.08 µM", "result": 1.42}, {"measurement": "relative viability", "setting": "CAL-12T; first compound 0.253 µM", "result": 0.932}, {"measurement": "relative viability", "setting": "CAL-12T; first compound 0.8 µM", "result": 1.2}, {"measurement": "relative viability", "setting": "CAL-12T; first compound 2.53 µM", "result": 0.73}, {"measurement": "relative viability", "setting": "ABC-1; first compound 0.08 µM", "result": 1.14}, {"measurement": "relative viability", "setting": "ABC-1; first compound 0.253 µM", "result": 0.811}, {"measurement": "relative viability", "setting": "ABC-1; first compound 0.8 µM", "result": 0.965}, {"measurement": "relative viability", "setting": "ABC-1; first compound 2.53 µM", "result": 0.428}, {"measurement": "relative viability", "setting": "LOU-NH91; first compound 0.08 µM", "result": 0.687}, {"measurement": "relative viability", "setting": "LOU-NH91; first compound 0.253 µM", "result": 0.659}, {"measurement": "relative viability", "setting": "LOU-NH91; first compound 0.8 µM", "result": 0.714}, {"measurement": "relative viability", "setting": "LOU-NH91; first compound 2.53 µM", "result": 0.648}, {"measurement": "relative viability", "setting": "NCI-H1734; first compound 0.08 µM", "result": 0.713}, {"measurement": "relative viability", "setting": "NCI-H1734; first compound 0.253 µM", "result": 0.64}, {"measurement": "relative viability", "setting": "NCI-H1734; first compound 0.8 µM", "result": 0.634}, {"measurement": "relative viability", "setting": "NCI-H1734; first compound 2.53 µM", "result": 0.606}, {"measurement": "relative viability", "setting": "NCI-H2170; first compound 0.08 µM", "result": 0.855}, {"measurement": "relative viability", "setting": "NCI-H2170; first compound 0.253 µM", "result": 0.612}, {"measurement": "relative viability", "setting": "NCI-H2170; first compound 0.8 µM", "result": 0.654}, {"measurement": "relative viability", "setting": "NCI-H2170; first compound 2.53 µM", "result": 0.578}, {"measurement": "relative viability", "setting": "NCI-H1944; first compound 0.08 µM", "result": 0.939}, {"measurement": "relative viability", "setting": "NCI-H1944; first compound 0.253 µM", "result": 0.765}, {"measurement": "relative viability", "setting": "NCI-H1944; first compound 0.8 µM", "result": 0.751}, {"measurement": "relative viability", "setting": "NCI-H1944; first compound 2.53 µM", "result": 0.786}, {"measurement": "relative viability", "setting": "NCI-H2405; first compound 0.08 µM", "result": 0.922}, {"measurement": "relative viability", "setting": "NCI-H2405; first compound 0.253 µM", "result": 0.804}, {"measurement": "relative viability", "setting": "NCI-H2405; first compound 0.8 µM", "result": 0.732}, {"measurement": "relative viability", "setting": "NCI-H2405; first compound 2.53 µM", "result": 0.635}]}]}
